Results as given in patent US8389523B2, “Substituted quinoxaline and an agrochemical composition thereof” (Kumiai Chemical Industry Co., Ltd., priority 2007, dated 2013).

How the values were obtained:
Format in all cases: in vivo
Set-up in all cases: scale not given here
[1] = test system: Echinochloa oryzicola Vasing; assay: Herbicidal effects in paddy field soil treatment (Test Example 1); details: for Herbicidal effects index, Echinochloa oryzicola Vasing: paddy field soil treatment, 1000 g of the active ingredient per hectare, wettable powder added dropwise on water surface, 21st day after treatment
Procedure, shortened: (§1)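 Weed seeds were sown into puddled, leveled paddy soil in pots and flooded to 3 cm water depth. One day later the diluted wettable powder formulation was dropped onto the water surface at 1000 g active ingredient per hectare. Herbicidal effect was scored on day 21 after greenhouse growth.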

[2] = test system: Monochoria vaginalis (Burm. f.) Presl var. plantaginea (Roxb.) Solms-Laub.; assay: as above; details: for Herbicidal effects index, Monochoria vaginalis (Burm. f.) Presl var. plantaginea (Roxb.) Solms-Laub.: paddy field soil treatment, 1000 g of the active ingredient per hectare, wettable powder added dropwise on water surface, 21st day after treatment
Procedure, shortened: as §1

[3] = test system: Scirpus juncoides Roxb. var. ohwianus. T. Koyama; assay: as above; details: for Herbicidal effects index, Scirpus juncoides Roxb. var. ohwianus. T. Koyama: paddy field soil treatment, 1000 g of the active ingredient per hectare, wettable powder added dropwise on water surface, 21st day after treatment
Procedure, shortened: as §1

[4] = test system: Abutilon theophrasti medicus; assay: Herbicidal effects in upland field soil treatment (Test Example 2); details: 1000 g active ingredient per hectare, 21st day after treatment, criteria of Table 138
Procedure, shortened: (§2)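 Pre-emergence soil application: seeds sown in upland field soil, covered, then wettable powder diluted in water sprayed on the soil surface at 1000 g active ingredient/ha in 1000 L/ha. Plants grown in greenhouse; herbicidal effect scored on a rating scale 21 days after treatment.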

[5] = test system: Amaranthus viridis L.; assay: as above; details: 1000 g active ingredient per hectare, 21st day after treatment, criteria of Table 138
Procedure, shortened: as §2

[6] = test system: Abutilon theophrasti medicus; assay: Herbicidal effects in upland field foliar treatment (Test Example 3); details: criteria of Table 138; for herbicidal effect (index) on Abutilon theophrasti medicus: 1000 g active ingredient per hectare, 14th day after treatment; for herbicidal effects on Abutilon theophrasti medicus: 1000 g of the active ingredient per hectare, 14th day after the treatment, wettable powder
Procedure, shortened: (§3)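 Weeds were sown in upland field soil and grown two weeks in a greenhouse before a foliar spray over the whole plant. Wettable powder was diluted in water and applied at 1000 L/ha, delivering 1000 g active ingredient/ha. Herbicidal effect was scored against set rating criteria 14 days after treatment.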

[7] = test system: Amaranthus viridis L.; assay: as above; details: criteria of Table 138; for herbicidal effect (index) on Amaranthus viridis L.: 1000 g active ingredient per hectare, 14th day after treatment; for herbicidal effects on Amaranthus viridis L.: 1000 g of the active ingredient per hectare, 14th day after the treatment, wettable powder
Procedure, shortened: as §3

[8] = test system: Echinochloa crus-galli (L.) P. Beauv. var. crus-galli; assay: as above; details: criteria of Table 138; for herbicidal effect (index) on Echinochloa crus-galli (L.) P. Beauv. var. crus-galli: 1000 g active ingredient per hectare, 14th day after treatment; for herbicidal effects on Echinochloa crus-galli (L.) P. Beauv. var. crus-galli: 1000 g of the active ingredient per hectare, 14th day after the treatment, wettable powder
Procedure, shortened: as §3

[9] = paddy field soil treatment (Test Example 1), criteria of Table 138

Compound | Herbicidal effects index, Echinochloa oryzicola Vasing [1] | Herbicidal effects index, Monochoria vaginalis (Burm. f.) Presl var. plantaginea (Roxb.) Solms-Laub. [2] | Herbicidal effects index, Scirpus juncoides Roxb. var. ohwianus. T. Koyama [3] | herbicidal effect (index) on Abutilon theophrasti medicus [4] | herbicidal effect (index) on Amaranthus viridis L. [5] | herbicidal effect (index) on Abutilon theophrasti medicus [6] | herbicidal effect (index) on Amaranthus viridis L. [7] | herbicidal effect (index) on Echinochloa crus-galli (L.) P. Beauv. var. crus-galli [8] | herbicidal effects on Abutilon theophrasti medicus [6] | herbicidal effects on Amaranthus viridis L. [7] | herbicidal effects on Echinochloa crus-galli (L.) P. Beauv. var. crus-galli [8] | herbicidal effect (index) on Echinochloa oryzicola Vasing [1, 9] | herbicidal effect (index) on Monochoria vaginalis (Burm. f.) Presl var. plantaginea (Roxb.) Solms-Laub. [2, 9] | herbicidal effect (index) on Scirpus juncoides Roxb. var. ohwianus. T. Koyama [3, 9]
O=C1CCCC(O)=C1C(=O)c1nc2ccccc2n(-c2ccccc2Cl)c1=O [II-9] | 5 | 5 | 5 | 5 | 4 | 5 | 5 | 5 | – | – | – | – | – | –
CCOc1cccc(-n2c(=O)c(C(=O)C3=C(O)CCCC3=O)nc3ccccc32)c1 [II-68] | 5 | 5 | 5 | 5 | 5 | – | – | – | 5 | 5 | 5 | – | – | –
O=C1CCCC(O)=C1C(=O)c1nc2ccccc2n(-c2cccc(Cl)c2)c1=O [II-11] | 5 | 5 | 5 | 5 | 5 | 5 | 5 | 5 | – | – | – | – | – | –
O=C1CCCC(O)=C1C(=O)c1nc2cccnc2n(-c2ccccc2C(F)(F)F)c1=O [IV-34] | 5 | 5 | 5 | 5 | 5 | – | – | – | 5 | 5 | 5 | – | – | –
N#CCCn1c(=O)c(C(=O)C2=C(O)CCCC2=O)nc2ccccc21 [Compound I-103] | 5 | 5 | 5 | 5 | 5 | 5 | 5 | 5 | – | – | – | – | – | –
Cc1nnc(-n2c(=O)c(C(=O)C3=C(O)CCCC3=O)nc3ccccc32)s1 [I-270] | 5 | 5 | 5 | 5 | 5 | 5 | 5 | 5 | – | – | – | – | – | –
COCCCn1c(=O)c(C(=O)C2=C(O)CCCC2=O)nc2ccccc21 [Compound I-93] | 5 | 5 | 5 | 4 | 5 | 5 | 5 | 5 | – | – | – | – | – | –
O=C1CCCC(O)=C1C(=O)c1nc2ccccc2n(-c2ccc3c(c2)CCC3)c1=O [II-222] | 5 | 5 | 5 | 5 | 5 | – | – | – | 5 | 5 | 5 | – | – | –
O=C1CCCC(O)=C1C(=O)c1nc2cccnc2n(-c2ccc(Br)cc2)c1=O [IV-18] | 5 | 5 | 5 | 5 | 5 | – | – | – | 5 | 5 | 5 | – | – | –
O=C1CCCC(O)=C1C(=O)c1nc2cc(F)c(F)cc2n(-c2ccccc2)c1=O [II-260] | 5 | 5 | 5 | 5 | 5 | – | – | – | 5 | 5 | 5 | – | – | –
N#Cc1ccc(-n2c(=O)c(C(=O)C3=C(O)CCCC3=O)nc3ccccc32)cc1 [II-137] | 5 | 5 | 5 | 5 | 5 | – | – | – | 5 | 5 | 5 | – | – | –
O=C1CCCC(O)=C1C(=O)c1nc2ccccc2n(-c2nccs2)c1=O [I-159] | 5 | 5 | 5 | 5 | 5 | 5 | 5 | 4 | – | – | – | – | – | –
Cn1c(=O)c(C(=O)C2=C(O)CCCC2=O)nc2cc(F)ccc21 [I-220] | 5 | 5 | 5 | 5 | 5 | 5 | 5 | 5 | – | – | – | – | – | –
O=C1CCCC(O)=C1C(=O)c1nc2ccc(F)cc2n(-c2ccc3c(c2)OCCO3)c1=O [II-242] | 5 | 5 | 5 | 4 | 5 | – | – | – | 4 | 5 | 5 | – | – | –
O=C1CCCC(O)=C1C(=O)c1cnccn1 [comparative compound A, reference compound] | – | – | – | 1 | 0 | – | – | – | 2 | 1 | 0 | 2 | 0 | 0
